Several values for one entry are separate records, joined by “and”; a condition that tells them apart may be missing. Equal entries are not always repeated.
Experiments:
[1] = target: T1, Prostaglandin G/H synthase 1 (Ovis aries, UniProt P05979); test: COX-1/COX-2 Inhibition Colorimetric Assay
T1 sequence (P05979 whole entry): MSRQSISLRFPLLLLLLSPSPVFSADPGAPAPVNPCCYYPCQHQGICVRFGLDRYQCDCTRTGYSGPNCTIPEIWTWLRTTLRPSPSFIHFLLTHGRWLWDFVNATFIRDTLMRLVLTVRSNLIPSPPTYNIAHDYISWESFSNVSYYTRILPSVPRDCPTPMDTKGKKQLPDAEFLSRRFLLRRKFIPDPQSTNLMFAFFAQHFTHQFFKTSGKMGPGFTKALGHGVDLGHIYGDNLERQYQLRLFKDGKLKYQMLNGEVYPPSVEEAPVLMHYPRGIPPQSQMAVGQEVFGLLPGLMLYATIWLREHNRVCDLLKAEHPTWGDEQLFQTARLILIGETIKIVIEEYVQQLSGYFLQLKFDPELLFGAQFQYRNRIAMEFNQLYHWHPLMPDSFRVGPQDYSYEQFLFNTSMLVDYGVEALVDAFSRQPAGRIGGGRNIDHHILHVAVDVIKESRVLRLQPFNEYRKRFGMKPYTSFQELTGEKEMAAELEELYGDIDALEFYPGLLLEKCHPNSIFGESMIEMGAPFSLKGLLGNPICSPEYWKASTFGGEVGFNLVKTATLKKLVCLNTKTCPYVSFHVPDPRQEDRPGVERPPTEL
Description: (§1) The in vitro inhibition of ovine COX-1 and COX-2 was measured using an enzyme immuno assay (EIA) kit (Cayman Chemical, Ann Arbor, MI, USA) according to the manufacturer's instructions and as reported before [Roschek et al., J. Med. Food., 12:615-623].

[2] = target: T2, Prostaglandin G/H synthase 2 (Ovis aries, UniProt P79208); test: COX-1/COX-2 Inhibition Colorimetric Assay
T2 sequence (P79208 whole entry): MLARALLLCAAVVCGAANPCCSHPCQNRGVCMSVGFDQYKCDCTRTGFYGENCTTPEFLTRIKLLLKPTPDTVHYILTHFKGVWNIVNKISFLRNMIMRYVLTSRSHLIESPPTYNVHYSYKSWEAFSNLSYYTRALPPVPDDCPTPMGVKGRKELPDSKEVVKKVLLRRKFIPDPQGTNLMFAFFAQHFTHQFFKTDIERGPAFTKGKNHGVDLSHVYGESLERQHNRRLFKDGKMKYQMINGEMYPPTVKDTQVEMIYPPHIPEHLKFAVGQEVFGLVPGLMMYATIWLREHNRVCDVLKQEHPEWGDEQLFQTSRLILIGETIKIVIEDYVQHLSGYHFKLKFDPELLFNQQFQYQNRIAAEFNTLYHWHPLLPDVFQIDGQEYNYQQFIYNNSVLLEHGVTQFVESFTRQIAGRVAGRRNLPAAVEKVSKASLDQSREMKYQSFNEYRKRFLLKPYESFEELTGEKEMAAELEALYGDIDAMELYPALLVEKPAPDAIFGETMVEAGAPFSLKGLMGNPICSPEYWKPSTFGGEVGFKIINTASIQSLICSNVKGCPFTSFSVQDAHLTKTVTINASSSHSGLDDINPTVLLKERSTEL
Description: as §1

Row | IC50 [1] | IC50 [2] | SMILES
1 | 6.52 µM | 0.74 µM | COc1ccc(C2CC(c3ccc(Cl)cc3)=NN2c2ccc(S(N)(=O)=O)cc2)cc1 (configuration not stated)
2 | 9.89 µM | 1.52 µM | CS(=O)(=O)c1ccc(N2N=C(c3ccc(Cl)cc3)CC2c2ccc(Cl)cc2)cc1 (configuration not stated) [3,5-Bis-(4-chloro-phenyl)-1-(4-methanesulfonyl-phenyl)-4,5-dihydro-1H-pyrazole (10j)]
3 | 8.65 µM | 0.98 µM | COc1cc(C2CC(c3ccc(Br)cc3)=NN2c2ccc(S(C)(=O)=O)cc2)cc(OC)c1OC (configuration not stated) [3-(4-Bromo-phenyl)-1-(4-methanesulfonyl-phenyl)-5-(3,4,5-trimethoxy-phenyl)-4,5-dihydro-1H-pyrazole (10g)]
4 | 4.85 µM | 0.63 µM | COc1ccc(C2CC(c3ccc(Br)cc3)=NN2c2ccc(S(C)(=O)=O)cc2)cc1 (configuration not stated) [3-(4-Bromo-phenyl)-1-(4-methanesulfonyl-phenyl)-5-(4-methoxy-phenyl)-4,5-dihydro-1H-pyrazole (10k)]
5 | 3.87 µM and 8.34 µM | 0.42 µM and 2.98 µM | COc1cc(C2CC(c3ccc(Cl)cc3)=NN2c2ccc(S(C)(=O)=O)cc2)cc(OC)c1OC (configuration not stated) [3-(4-Chloro-phenyl)-1-(4-methanesulfonyl-phenyl)-5-(3,4,5-trimethoxy-phenyl)-4,5-dihydro-1H-pyrazole (10h)]
6 | 10.2 µM | 3.41 µM | COc1ccc(C2CC(c3ccc(Cl)cc3)=NN2c2ccc(S(C)(=O)=O)cc2)cc1 (configuration not stated) [3-(4-Chloro-phenyl)-1-(4-methanesulfonyl-phenyl)-5-(4-methoxy-phenyl)-4,5-dihydro-1H-pyrazole (10l)]
7 | 7.52 µM | 0.78 µM | COc1cc(C2CC(c3ccc(Br)cc3)=NN2c2ccc(S(N)(=O)=O)cc2)cc(OC)c1OC (configuration not stated) [4-[3-(4-Bromo-phenyl)-5-(3,4,5-trimethoxy-phenyl)-4,5-dihydropyrazol-1-yl]-benzene-sulfonamide (10a)]
8 | 6.87 µM | 1.43 µM | NS(=O)(=O)c1ccc(N2N=C(c3ccc(Br)cc3)CC2c2ccc(Cl)cc2)cc1 (configuration not stated) [4-[3-(4-Bromo-phenyl)-5-(4-chloro-phenyl)-4,5-dihydro-pyrazol-1-yl]-benzene-sulfonamide (10c)]
9 | 3.41 µM | 0.22 µM | COc1cc(C2CC(c3ccc(Cl)cc3)=NN2c2ccc(S(N)(=O)=O)cc2)cc(OC)c1OC (configuration not stated) [4-[3-(4-Chloro-phenyl)-5-(3,4,5-trimethoxy-phenyl)-4,5-dihydropyrazol-1-yl]-benzene-sulfonamide (10b)]
10 | 5.11 µM | 0.9 µM | NS(=O)(=O)c1ccc(N2N=C(c3ccc(Cl)cc3)CC2c2ccc(Cl)cc2)cc1 (configuration not stated) [4-[3-(4-Chloro-phenyl)-5-(4-chloro-phenyl)-4,5-dihydro-pyrazol-1-yl]-benzene-sulfonamide (10d)]
11 | 5.17 µM | 0.63 µM | COc1ccc(C2CC(c3ccc(Br)cc3)=NN2c2ccc(S(N)(=O)=O)cc2)cc1 (configuration not stated) [UNM-0000306138]

From BindingDB's records for doi:10.1016/j.bioorg.2016.11.008 (Beni-Suef University, 2017)
